Measured values reported in ChEMBL document CHEMBL3352522 (Bioorg Med Chem Lett, 2014).
Activity calls are given as the source filed them. The calls are words filed in the database; no cut-off is given here.

What was measured:
[1] = molecular target: T1, Peroxisome proliferator-activated receptor alpha (Homo sapiens) (UniProt Q07869); assay: Activation of human PPARalpha ligand binding domain expressed in COS7 cells by luciferase reporter gene assay relative to GW7647; type: cell-based; design: concentration or dose not given beside the values; conditions: COS-7
T1 sequence (whole entry): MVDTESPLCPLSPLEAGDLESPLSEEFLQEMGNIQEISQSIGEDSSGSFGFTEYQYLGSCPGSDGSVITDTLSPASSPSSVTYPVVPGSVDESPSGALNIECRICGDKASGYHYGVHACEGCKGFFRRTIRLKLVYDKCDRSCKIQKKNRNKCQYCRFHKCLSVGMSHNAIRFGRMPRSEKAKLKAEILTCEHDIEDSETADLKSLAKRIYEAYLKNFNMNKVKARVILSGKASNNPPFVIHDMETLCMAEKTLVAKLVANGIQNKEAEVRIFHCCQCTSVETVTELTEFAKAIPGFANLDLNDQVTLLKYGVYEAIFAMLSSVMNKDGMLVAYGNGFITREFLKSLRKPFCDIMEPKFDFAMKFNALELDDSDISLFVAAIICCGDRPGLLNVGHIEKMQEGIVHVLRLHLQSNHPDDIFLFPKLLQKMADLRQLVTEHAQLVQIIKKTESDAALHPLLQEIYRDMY

[2] = molecular target: T2, Peroxisome proliferator-activated receptor gamma (Homo sapiens, UniProt P37231); assay: Activation of human PPARgamma ligand binding domain expressed in COS7 cells by luciferase reporter gene assay; type: cell-based, COS-7
T2 sequence (P37231 whole entry): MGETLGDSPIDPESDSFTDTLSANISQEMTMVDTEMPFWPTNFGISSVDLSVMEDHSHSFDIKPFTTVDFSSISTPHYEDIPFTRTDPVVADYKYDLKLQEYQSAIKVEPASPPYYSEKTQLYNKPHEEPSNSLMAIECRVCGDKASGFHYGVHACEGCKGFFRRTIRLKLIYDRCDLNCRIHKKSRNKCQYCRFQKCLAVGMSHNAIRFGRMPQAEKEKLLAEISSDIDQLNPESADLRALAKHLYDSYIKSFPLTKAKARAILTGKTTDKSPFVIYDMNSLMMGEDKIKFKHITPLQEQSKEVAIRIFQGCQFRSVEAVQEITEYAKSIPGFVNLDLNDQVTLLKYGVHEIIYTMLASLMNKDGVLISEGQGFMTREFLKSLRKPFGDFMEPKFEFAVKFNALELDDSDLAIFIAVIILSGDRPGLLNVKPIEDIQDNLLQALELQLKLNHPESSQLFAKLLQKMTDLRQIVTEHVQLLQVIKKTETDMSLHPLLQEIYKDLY

[3] = molecular target: T3, Peroxisome proliferator-activated receptor delta (Homo sapiens) (UniProt Q03181); assay: Activation of human PPARbeta ligand binding domain expressed in COS7 cells assessed as residual activity at 10 uM by luciferase reporter gene assay; type: cell-based; conditions: COS-7
T3 sequence (whole entry): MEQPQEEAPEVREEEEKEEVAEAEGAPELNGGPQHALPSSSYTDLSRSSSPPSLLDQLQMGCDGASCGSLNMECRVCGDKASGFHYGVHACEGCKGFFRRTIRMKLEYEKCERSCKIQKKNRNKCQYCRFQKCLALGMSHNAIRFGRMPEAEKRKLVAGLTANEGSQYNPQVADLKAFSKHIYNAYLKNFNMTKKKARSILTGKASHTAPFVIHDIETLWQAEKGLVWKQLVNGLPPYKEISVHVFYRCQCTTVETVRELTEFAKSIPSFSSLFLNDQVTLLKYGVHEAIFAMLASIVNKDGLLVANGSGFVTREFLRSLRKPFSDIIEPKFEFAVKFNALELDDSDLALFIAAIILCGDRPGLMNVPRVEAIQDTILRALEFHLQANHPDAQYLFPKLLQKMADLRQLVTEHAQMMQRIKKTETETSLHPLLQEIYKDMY

[4] = molecular target: T4, Peroxisome proliferator-activated receptor gamma (Homo sapiens) (UniProt P37231); assay: Activation of human PPARgamma ligand binding domain expressed in COS7 cells by luciferase reporter gene assay relative to pioglitazone; type: cell-based; design: concentration or dose not given beside the values; conditions: COS-7
T4 sequence (whole entry): T2 sequence (P37231 whole entry)

[5] = molecular target: T5, Peroxisome proliferator-activated receptor alpha (Homo sapiens, UniProt Q07869); assay: Activation of human PPARalpha ligand binding domain expressed in COS7 cells by luciferase reporter gene assay; type: cell-based, COS-7
T5 sequence (Q07869 whole entry): T1 sequence (whole entry)

[6] = molecular target: T6, Polyunsaturated fatty acid 5-lipoxygenase (Homo sapiens, UniProt P09917); assay: Inhibition of 5-LOX in human PMNL cells assessed as reduction in 5-LOX product formation pre-incubated for 15 mins by HPLC method; type: cell-based
T6 sequence (P09917 whole entry): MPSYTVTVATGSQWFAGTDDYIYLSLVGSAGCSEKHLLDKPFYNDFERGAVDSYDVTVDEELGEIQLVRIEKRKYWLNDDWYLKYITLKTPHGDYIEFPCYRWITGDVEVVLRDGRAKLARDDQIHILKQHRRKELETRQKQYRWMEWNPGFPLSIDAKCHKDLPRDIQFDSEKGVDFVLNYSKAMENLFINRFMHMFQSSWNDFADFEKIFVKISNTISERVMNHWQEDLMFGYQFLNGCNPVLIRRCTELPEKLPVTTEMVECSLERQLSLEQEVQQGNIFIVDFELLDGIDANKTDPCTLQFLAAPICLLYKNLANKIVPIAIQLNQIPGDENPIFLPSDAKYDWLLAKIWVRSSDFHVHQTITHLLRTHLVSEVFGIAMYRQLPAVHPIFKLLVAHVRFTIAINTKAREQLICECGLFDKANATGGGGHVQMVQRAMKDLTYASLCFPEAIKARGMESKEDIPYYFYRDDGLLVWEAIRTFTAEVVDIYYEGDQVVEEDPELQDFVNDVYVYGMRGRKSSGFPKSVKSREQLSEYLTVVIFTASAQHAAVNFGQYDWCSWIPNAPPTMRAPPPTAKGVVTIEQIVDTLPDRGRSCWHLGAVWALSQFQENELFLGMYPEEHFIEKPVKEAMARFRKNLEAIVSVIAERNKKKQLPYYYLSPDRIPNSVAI

[7] = molecular target: T1, Peroxisome proliferator-activated receptor alpha (Homo sapiens); assay: Activation of human PPARalpha ligand binding domain expressed in COS7 cells assessed as residual activity at 10 uM by luciferase reporter gene assay relative to GW7647; type: cell-based; conditions: COS-7
Prostaglandin E synthase = molecular target: T7, Prostaglandin E synthase (Homo sapiens, UniProt O14684); assay: Inhibition of mPGES-1 in human A549 cells microsomes assessed as reduction in PGE2 formation by RP-HPLC assay; type: cell-based
T7 sequence (O14684 whole entry): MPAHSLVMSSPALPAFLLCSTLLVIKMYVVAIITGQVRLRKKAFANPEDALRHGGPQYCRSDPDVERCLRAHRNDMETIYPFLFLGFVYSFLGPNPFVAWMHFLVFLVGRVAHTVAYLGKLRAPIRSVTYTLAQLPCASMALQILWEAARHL

[8] = molecular target: T4, Peroxisome proliferator-activated receptor gamma (Homo sapiens); assay: Activation of human PPARgamma ligand binding domain expressed in COS7 cells assessed as residual activity at 10 uM by luciferase reporter gene assay relative to pioglitazone; type: cell-based; conditions: COS-7
[9] = molecular target: T6, Polyunsaturated fatty acid 5-lipoxygenase; assay: Inhibition of 5-LOX in human PMNL cells assessed as reduction in 5-LOX product formation pre-incubated for 15 mins by HPLC based cell-free assay
[10] = molecular target: T1, Peroxisome proliferator-activated receptor alpha (Homo sapiens); assay: Activation of human PPARalpha ligand binding domain expressed in COS7 cells assessed as residual activity at 6 uM by luciferase reporter gene assay relative to GW7647; type: cell-based; conditions: COS-7
[11] = molecular target: T3, Peroxisome proliferator-activated receptor delta (Homo sapiens); assay: Activation of human PPARbeta ligand binding domain expressed in COS7 cells assessed as residual activity at 3 uM by luciferase reporter gene assay; type: cell-based; conditions: COS-7
[12] = molecular target: T1, Peroxisome proliferator-activated receptor alpha (Homo sapiens); assay: Activation of human PPARalpha ligand binding domain expressed in COS7 cells assessed as residual activity at 3 uM by luciferase reporter gene assay relative to GW7647; type: cell-based; conditions: COS-7

SMILES | Activity [1] | EC50 [2] | Activity [3] | Activity [4] | EC50 [5] | further results
CCCCC(Sc1nc(Cl)cc(Nc2nc(-c3ccc(Cl)cc3)cs2)n1)C(=O)O (centres undefined) | 57% | 7.6 µM | inactive | 136% | 6.5 µM | 
CCCCCCC(Sc1nc(Cl)cc(Nc2nc(-c3ccc(C(=O)O)cc3)cs2)n1)C(=O)O (centres undefined) |  |  | inactive |  |  | IC50 [6]: > 10 µM; Activity [7]: inactive; IC50 (Prostaglandin E synthase): > 10 µM; Activity [8]: inactive; IC50 [9]: > 10 µM
CCCCCCC(Sc1nc(Cl)cc(Nc2ccc(-c3ccc(C#N)cc3)cc2)n1)C(=O)O (centres undefined) |  |  |  |  |  | IC50 [2]: 1.5 µM; IC50 [5]: 0.19 µM
CCCCCCC(Sc1nc(Cl)cc(Nc2nc(-c3ccc(F)c(F)c3)cs2)n1)C(=O)O (centres undefined) | 70% | 2.9 µM | inactive | 94% | 5.7 µM | 
CCCCCCC(Sc1nc(Cl)cc(Nc2nc(-c3ccc(C)cc3)cs2)n1)C(=O)O (centres undefined) | 125% | 7.2 µM | inactive | 139% | 8.2 µM | 
CCCCCCC(Sc1nc(Cl)cc(Nc2nc(-c3ccccc3)cs2)n1)C(=O)O (centres undefined) |  | 5.7 µM | inactive | 108% |  | Activity [10]: 55.4%
CCC(Sc1nc(Cl)cc(Nc2nc(-c3ccc(Cl)cc3)cs2)n1)C(=O)O (centres undefined) | 51% | 3.9 µM | inactive | 95% | 3.6 µM | 
CCCCCCC(Sc1nc(Cl)cc(Nc2nc(-c3ccccc3)c(C)s2)n1)C(=O)O (centres undefined) |  | 2.3 µM | inactive | 99% |  | Activity [10]: 23%
CCCCCCC(Sc1nc(Cl)cc(Nc2ccc3ncccc3c2)n1)C(=O)O (centres undefined) |  |  |  |  |  | IC50 [2]: 3.5 µM; IC50 [5]: 2.2 µM
O=C(O)CSc1nc(OCCc2ccccc2)cc(OCCc2ccccc2)n1 |  |  |  |  |  | inhibition [7]: inactive; IC50 [2]: 3.7 µM
CCCCCCC(Sc1nc(Cl)cc(Nc2nc3c(s2)CCc2cc(OC)ccc2-3)n1)C(=O)O (centres undefined) | 229% | 3.7 µM |  | 86% | 5.4 µM | Activity [11]: inactive
O=C(O)CSc1nc(Cl)cc(Nc2nc(-c3ccc(Cl)cc3)cs2)n1 |  |  | inactive |  |  | Activity [7]: 24.7%; Activity [8]: 63%
CCCCCCC(Sc1nc(Cl)cc(Nc2nc(-c3ccc4c(c3)CCCC4)cs2)n1)C(=O)O (centres undefined) |  | 4.1 µM |  | 107% |  | Activity [12]: 52.9%; Activity [11]: inactive
CCCCCCC(Sc1nc(Cl)cc(Nc2nc(-c3ccc(Br)cc3)c(C)s2)n1)C(=O)O (centres undefined) | 102% | 3.8 µM |  | 144% | 3.9 µM | Activity [11]: inactive
CCCCCCC(Sc1nc(Cl)cc(Nc2nc(-c3ccc(Cl)cc3)cs2)n1)C(=O)O (centres undefined) | 57% | 6.4 µM | inactive | 90% | 6.6 µM | 
Cc1cccc(Nc2cc(Cl)nc(SC(C(=O)O)c3cccc4ccccc34)n2)c1C (centres undefined) |  |  |  |  |  | inhibition [7]: inactive; IC50 [2]: 6.2 µM
CCCCCCC(Sc1nc(Cl)cc(Nc2nc(-c3ccc(F)cc3F)cs2)n1)C(=O)O (centres undefined) |  | 3.6 µM | inactive | 145% |  | Activity [7]: 18%
CCCCCCC(Sc1nc(Cl)cc(Nc2nc(-c3ccc4ccccc4c3)cs2)n1)C(=O)O (centres undefined) |  | 1.3 µM | inactive | 78% |  | Activity [10]: 37%
CCCCCCC(Sc1nc(Cl)cc(Nc2nc(-c3ccc([N+](=O)[O-])cc3)cs2)n1)C(=O)O (centres undefined) | 89.4% | 3.4 µM | inactive | 130% | 2.9 µM | 
CCCCCCC(Sc1nc(Cl)cc(Nc2cccc(C)c2C)n1)C(=O)O (centres undefined) |  |  |  |  |  | IC50 [2]: 3.6 µM; IC50 [5]: 1 µM
